In one data set the test system is A549. In words: Cytotoxicity against human A549 cells after 7 days by MTT assay. In kind it is functional. For orientation: Tetrazolium assays rely on reduction of a dye to a coloured formazan, in cell work by metabolically active cells.
A further data set concerns MCF7. In words: Cytotoxicity against human MCF7 cells after 7 days by MTT assay. In kind it is functional. Conditions: MCF7, 168 h, read-out: ED50 (the source's name).
Another data set deals with MIA PaCa-2. In words: Cytotoxicity against human MIAPaCa2 cells after 7 days by MTT assay. In kind it is functional. Conditions: for EC50: Homo sapiens, MIA PaCa-2, 168 h, read-out: ED50 (the source's name).
The subject of a further data set is HT-29. In words: Cytotoxicity against human HT-29 cells after 7 days by MTT assay. In kind it is functional. Conditions: for EC50: Homo sapiens, HT-29, 168 h, read-out: ED50 (the source's name).
A further data set deals with A498. In words: Cytotoxicity against human A498 cells after 7 days by MTT assay. In kind it is functional. Particulars: for EC50: Homo sapiens, A498, 168 h, read-out: ED50 (the source's name).
The nature of data set [1]: Toxicity to brine shrimp. Format: organism-based. Particulars: artemia, in vivo.
Another data set deals with PC-3. In words: Cytotoxicity against human PC3 cells after 7 days by MTT assay. Particulars: PC-3, 168 h, read-out: ED50 (the source's name). In kind it is functional.

Converted amounts (≈) assume the structure as drawn.

Regarding `COc1cccc2c1C(=O)c1c(O)c3c(c(O)c1C2=O)C[C@@](O)(C(=O)CO)C[C@@H]3O[C@H]1C[C@H](N)[C@H](O)[C@H](C)O1` [DOXORUBICIN], the EC50 came out at 0.00341 µg/mL (≈ 6.27 nM) in the data set with A549 (Homo sapiens, A549, 168 h, read-out: ED50 (the source's name)); 0.329 µg/mL (≈ 605 nM) in the data set with MCF7; 0.00195 µg/mL (≈ 3.59 nM) in the data set with MIA PaCa-2; 0.0116 µg/mL (≈ 21.3 nM) in the data set with HT-29; 0.00197 µg/mL (≈ 3.62 nM) with A498.

As for `CCCCCCCCCCCCCC[C@H](O)[C@H]1CC[C@H]([C@H](O)CC[C@H](O)CCCCC[C@@H](O)CC2=C[C@H](C)OC2=O)O1` [LONGICIN], the ED50 was found to be 1.77 ×10⁻⁶ ug/ml in the data set with A549, 1.25 ×10⁻⁹ ug/ml with MIA PaCa-2, 2.4 ×10⁻⁵ ug/ml in the data set on HT-29 and 1.99 ×10⁻⁴ ug/ml in the data set with A498. Also, the EC50 in the data set with MCF7 was over 1 µg/mL; in the data set with PC-3, 0.00426 µg/mL (≈ 7.14 nM). This compound had an LC50 in data set [1] of 0.11 µg/mL (≈ 184 nM).

As to `CCCCCCCCCCCCCC[C@@H](O)[C@H]1CC[C@H]([C@H](O)CC[C@H](O)CCCCC[C@@H]2CC(CC(C)=O)C(=O)O2)O1` (mixture of isomers), the ED50 in the data set with A549 was 2.06 ×10⁻⁵ ug/ml; in the data set on HT-29 it was 4.05 ×10⁻⁴ ug/ml. Further, the EC50 in the data set on MCF7 turned out to be 0.967 µg/mL; in the data set on PC-3 it was 0.137 µg/mL; with MIA PaCa-2, 0.00133 µg/mL; in the data set with A498, 0.291 µg/mL. In data set [1], this compound returned an LC50 of 0.14 µg/mL.

For `CCCCCCCCCCCCCC[C@H](O)[C@H]1CC[C@H]([C@H](O)CC[C@H](O)CCCCC[C@@H]2CC(CC(C)=O)C(=O)O2)O1` (mixture of isomers), the ED50 is given as 1.23 ×10⁻⁴ ug/ml in the data set with A549 and 2.37 ×10⁻⁴ ug/ml with MIA PaCa-2. Further, the EC50 with MCF7 amounted to 0.186 µg/mL; with PC-3, 0.201 µg/mL; in the data set with HT-29, 0.235 µg/mL; with A498, 0.172 µg/mL. The compound also displayed an LC50 in data set [1] of 0.46 µg/mL.

What is called LC50 is the concentration lethal to half of the exposed cells or organisms.

These data come from ChEMBL document CHEMBL1159290, “Longicin and goniothalamicinone: novel bioactive monotetrahydrofuran acetogenins from Asimina longifolia” (J Nat Prod, 1995).
